The source of these data is patent US6143910A, “Methods for preparation and use of 1α, 24(S) -dihydroxy vitamin D2” (priority 1998, dated 2000).

Data set [1] in a line: Dose ranging study in postmenopausal osteoporotic women. In kind it is in vivo, human. The following applies: oral 0.5 to 8.0 μg/day, escalated weekly over five weeks. The protocol: Twenty postmenopausal osteoporotic women are enrolled in an open label study.
On admission to the study, all patients receive instruction on selecting a daily diet containing 400 to 600 mg of calcium. Compliance to this diet is verified at weekly intervals by 24-hour food records and by interviews with each patient.
All patients complete a one-week baseline period, a five-week treatment period, and a one-week post-treatment observation period. During the treatment period, patients orally self-administer 1α,24(S)-dihydroxyvitamin D2 at an initial dose of 0.5 μg/day for the first week, and at successively higher doses of 1.0, 2.0, 4.0, and 8.0 μg/day in each of the following four weeks. All doses are administered before breakfast.
Blood and urine chemistries are monitored on a weekly basis throughout the study. Key blood chemistries include fasting serum levels of-calcium, phosphorus, osteocalcin, creatinine, and blood urea nitrogen. Key urine chemistries include 24-hour excretion of calcium, phosphorus, and creatinine.

Data set [2] addresses T1, vitamin D serum binding protein (DBP) (Rattus norvegicus, UniProt P04276).
T1 sequence (P04276 17-476): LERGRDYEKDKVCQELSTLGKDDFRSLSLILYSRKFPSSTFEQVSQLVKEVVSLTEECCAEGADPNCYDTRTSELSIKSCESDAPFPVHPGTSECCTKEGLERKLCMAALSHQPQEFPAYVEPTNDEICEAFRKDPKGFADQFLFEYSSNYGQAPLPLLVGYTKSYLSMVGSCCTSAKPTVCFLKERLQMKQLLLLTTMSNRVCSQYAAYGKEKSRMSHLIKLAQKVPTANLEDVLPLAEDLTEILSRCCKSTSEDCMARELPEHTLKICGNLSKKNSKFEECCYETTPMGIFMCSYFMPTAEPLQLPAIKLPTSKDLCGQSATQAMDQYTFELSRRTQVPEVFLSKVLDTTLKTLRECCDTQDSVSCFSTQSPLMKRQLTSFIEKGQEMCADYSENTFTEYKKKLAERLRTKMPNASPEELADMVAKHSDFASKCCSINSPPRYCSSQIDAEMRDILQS
The experiment in a line: Affinity for vitamin D serum binding protein using vitamin D deficient rat serum. From the text: In addition, the weak binding by the DBP was indicative of more rapid clearance, allowing for low toxicity.

Data set [3] can be described thus: Hypocalcemia and metabolic bone disease in chronic hemodialysis patients. In kind it is in vivo, human. The following applies: greater than 3.0 μg/day, twelve months. The protocol:
A twelve-month, double-blind, placebo-controlled clinical trial is conducted with thirty men and women with renal disease who are undergoing chronic hemodialysis. […] Efficacy is evaluated by pre- and post-treatment comparisons of the two patient groups with regard to (a) direct measurements of intestinal calcium absorption, (b) total body calcium retention, (c) radial and spinal bone mineral density, or (d) determinations of serum calcium. Safety is evaluated by regular monitoring of serum calcium.

Data set [4] deals with Human keratinocytes. Briefly: Epidermal cell differentiation and proliferation testing. In kind it is cell-based. Particulars: 0.05 to 5 μg/ml. The method, then: Human keratinocytes are cultured according to known modifications of the system originally described by Rheinwald and Green (Cell, vol. 6, p. 331 (1975)). The 1α,24(S)-dihydroxy vitamin D2, dissolved in ethanol, is added to cells to yield a variety of concentrations between 0.05 and 5 μg/ml with the ethanol concentration not to exceed 0.5% v/v. Control cultures are supplemented with ethanol at a final concentration of 0.5% v/v.
Differentiation and proliferation of epidermal cells in culture is examined by:
1. quantitation of cornified envelopes;
2. quantitation of cell density of cells attached to disks;
3. monitoring transglutaminase activity; or
4. monitoring DNA synthesis by incorporation of ^3 H-thymidine.

The target of data set [5] is T2, bovine thymus VDR (Bos taurus, UniProt Q28037).
T2 construct: commercially available kit of bovine thymus VDR; purchased Incstar (Stillwater, Minn.); host or cells: bovine thymus
T2 sequence (Q28037 1-426): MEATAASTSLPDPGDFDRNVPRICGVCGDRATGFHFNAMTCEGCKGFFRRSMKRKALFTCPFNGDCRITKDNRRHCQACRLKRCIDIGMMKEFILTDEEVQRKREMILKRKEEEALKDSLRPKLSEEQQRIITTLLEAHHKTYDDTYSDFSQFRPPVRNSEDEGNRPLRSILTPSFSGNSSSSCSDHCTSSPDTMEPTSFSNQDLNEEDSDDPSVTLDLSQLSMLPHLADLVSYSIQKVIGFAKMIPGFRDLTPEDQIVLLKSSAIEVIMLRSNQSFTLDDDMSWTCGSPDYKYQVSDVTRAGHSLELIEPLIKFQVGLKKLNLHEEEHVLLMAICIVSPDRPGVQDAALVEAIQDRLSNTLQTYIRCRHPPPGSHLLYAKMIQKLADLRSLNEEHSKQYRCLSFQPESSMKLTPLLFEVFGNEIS
Briefly: Radioreceptor assay with bovine thymus VDR (Incstar), displacement of 3H-1α,25-(OH)2 D3. The class given is binding. From the text: Purified 1α,24(S)-(OH)2 D2 was quantitated by photodiode array spectrophotometry and assayed in the radioreceptor assay.
The purified 1α,24(R)-(OH)2 D2 and 1α,24(S)-(OH)2 D2 epimers were quantitated by ultraviolet spectroscopy. The concentration of 1α,24(R)-(OH)2 D2 required to produce the same displacement of ^3 H-1α,25-(OH)2 D3 tracer from the receptor was 20 to 30 times that required for 1α,24(S)-(OH)2 D2, as shown in FIG. 4.
A general note: In a radioligand displacement assay an active substance lowers the binding of a labelled ligand.

Data set [6] relates to BCA-1 or ZR-75-1 (breast) and COL-1 (colon). The experiment in a line: Antiproliferative activity in human cancer cell lines, thymidine incorporation. In kind it is cell-based. The following applies: dose-response studies. The method, then:
Dose-response studies are conducted with 1α,24(S)-(OH)2 D2 in a battery of human cancer cell lines. These cell lines include, but are not limited to, the following: BCA-1 or ZR-75-1 (breast) and COL-1 (colon), as described by Shieh, H. L. et al. Chem. Biol. Interact., vol. 81, pp. 35-55 (1982). In this study, appropriate solvents are used as negative controls.

“Also recorded” adds a separate entry of the source. Read-outs that look alike come from different tables or passages of the source.

Regarding `C=C1/C(=C\C=C2/CCC[C@]3(C)[C@@H]([C@H](C)/C=C/[C@@](C)(O)C(C)C)CC[C@@H]23)C[C@@H](O)C[C@@H]1O` [1α,24(S)-(OH)2 D2, 1α,24(S)-dihydroxy Vitamin D2], in data set [1], the “24-hour urinary calcium levels” value is recorded as “modest increases”, the “Routinely monitored serum parameters” value was “no effect on any routinely monitored serum parameters”, the Serum osteocalcin levels entry was “increases in serum osteocalcin levels” and the “Urinary excretion of hydroxyproline” value is on record as “nor does it increase urinary excretion of hydroxyproline”. In data set [2], the “Binding affinity for the vitamin D serum binding protein (in words)” value was “relatively poor binding affinity”. Further, in data set [2] (listed as 1α,24(S)-dihydroxy vitamin D2), the “Binding affinity for the vitamin D serum binding protein (in words)” value is reported as “more weakly than does 1,25-(OH)2 D3”. Also, in data set [3], the Incidence of hypercalcemia entry is recorded as “insignificant incidence of hypercalcemia”; the “Radial and spinal bone densities” value is “stable radial and spinal bone densities relative to baseline values”; the Serum calcium levels result is given as “normalized serum calcium levels”; the Total body calcium result is “stable values for total body calcium”. Besides, in data set [4], the “Cell density of attached cells versus control cultures” value is recorded as “fewer attached cells”, the “Cornified envelopes versus control cultures” value was “more cornified envelopes”, the “DNA synthesis (3H-thymidine incorporation) versus control cultures” value is “lower DNA synthesis” and the “Transglutaminase activity versus control cultures” value is on record as “higher transglutaminase activity”. Besides, the “Affinity for VDR relative to 1α,25-(OH)2 D3” value in data set [5] is “two-fold less competitive; also recorded: two-fold lower affinity”. In data set [6], the “Antiproliferative activity, inhibition of thymidine incorporation” value is “potent (and reversible) antiproliferative activity”.
